By Ki is commonly meant a dissociation constant, usually derived from enzyme kinetics or from competition with a known ligand. Read a low Ki as tighter binding.

Test [1] can be described thus: Inhibitory constant for RTX binding to porcine spinal cord.
The nature of test [2]: Inhibition of [3H]- RTX binding to Vanilloid receptors from pig spinal cord.

Turning to `COc1cc(CC(=O)OCC2=C[C@H]3C4C(C)(C)[C@]4(OC(C)=O)[C@H](OC(=O)Cc4ccccc4)[C@@H](C)[C@]3(O)[C@@H]3C=C(C)C(=O)[C@@]3(O)C2)ccc1O` (stereo partly drawn) [Phenyl-acetic acid (1aR,1bS,4aR,7aS,7bS,8R,9R,9aS)-9a-acetoxy-4a,7b-dihydroxy-3-[2-(4-hydroxy-3-methoxy-phenyl)-acetoxymethyl]-1,1,6,8-tetramethyl-5-oxo-1a,1b,4,4a,5,7a,7b,8,9,9a-decahydro-1H-cyclopropa[3,4]benzo[1,2-e]azulen-9-yl ester], the figures for the inhibition constant Ki in test [1] and in test [2] were 0.12 nM and 2100 nM, respectively.

The values above are taken from BindingDB's records for doi:10.1021/jm960063l (Institute, 1996).
